Laboratory results reported in patent US12247029B2, “Heterocyclic compounds as class II phosphoinositide 3-kinase inhibitors” (Forschungsverbund Berlin e.V., priority 2018, dated 2025).
“Also recorded” adds a separate entry of the source. Like-named read-outs stand apart in the source and are kept apart here.

Key:
PI3KC2α Δ1-298 = PI3KC2α Δ1-298 (Homo sapiens (Human), UniProt O00443); assay: ADP-Glo kinase assay with purified PI3KC2α Δ1-298; format: biochemical
How it was run: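 Purified human PI3KC2α Δ1-298 (10 ng/μl) with liver PI (200 μM) and ATP (40 μM), 20 min kinase reaction; ADP formed read by ADP-Glo luminescence after 40 min ATP depletion. Screening compounds at 10 μM; reactions lacking PI served as negative control.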

[1] = tested on: commercially available lipid kinases and the related mTOR protein kinase; assay: In vitro kinase profiling at fixed 10 μM (lipid kinase panel, mTOR, general kinase panel); format: biochemical; conditions: 10 μM compound; listed as C2a_Inh3
Procedure: FIG. 7. In vitro kinase activity in presence of 10 μM compounds. (A-C) The specificity of initial screening hits and C2a_inh1-3 was validated by incubation with available lipid kinases. […] (D) Selectivity may be modulated by modifying the R11 substituent of Formula 1. […]
We firstly analyzed the specificity of C2a_inh1 (dihydropteridinone derived compound) and other initial screening hits (eg. quinolone derived compound) in vitro. […]

[2] = tested on: eGFP-clathrin expressing Cos7 cells; assay: CCP dynamics by TIRF microscopy; format: cell-based; conditions: treatment for 1 h, vs DMSO
Procedure: (§1) FIG. 8. Inhibition of PI3KC2α in living cells upon treatment with C2a_inh1-3. (A) PI3KC2α inhibition impairs CCP dynamics analyzed by TIRF microscope. eGFP-clathrin expressing Cos7 cells were treated by DMSO or C2a_Inh3 for 1 h and imaged by TIRF microscope. […] (B) C2a_Inh3 treatment of eGFP-SNX9 AS OE HeLa cells. […] Scale bar, 10 μm or 2 μm (inset). (C) Quantification of the results depicted in B, indicating the percentage of cells containing membrane tubules (N=3, statistical analysis with one-way ANOVA, **** is for p<0.0001).
To test if the validated compounds are cell membrane permeable and, thus, can be used as medicaments and in cell-based experiments, the inventors analyzed clathrin-mediated endocytosis of transferrin in the presence of PI3KC2α inhibitors or DMSO as a solvent control. […] Further, the inventors monitored the CCP dynamics in cells with PI3KC2α inhibitor (C2a_Inh3) treatment for 1 h.

[3] = tested on: HeLa cells overexpressing SNX9 AS; assay: SNX9 AS membrane recruitment / tubulation; format: cell-based; conditions: eGFP-SNX9 AS OE HeLa cells, vs DMSO
Procedure: as §1
SNX9 is a main effector protein of PI3KC2α dependent PI(3,4)P2 production. […] HeLa cells overexpressing SNX9 AS were treated with C2a_inh_3 or DMSO as a control.

Sequence of PI3KC2α Δ1-298 (O00443 299-1686): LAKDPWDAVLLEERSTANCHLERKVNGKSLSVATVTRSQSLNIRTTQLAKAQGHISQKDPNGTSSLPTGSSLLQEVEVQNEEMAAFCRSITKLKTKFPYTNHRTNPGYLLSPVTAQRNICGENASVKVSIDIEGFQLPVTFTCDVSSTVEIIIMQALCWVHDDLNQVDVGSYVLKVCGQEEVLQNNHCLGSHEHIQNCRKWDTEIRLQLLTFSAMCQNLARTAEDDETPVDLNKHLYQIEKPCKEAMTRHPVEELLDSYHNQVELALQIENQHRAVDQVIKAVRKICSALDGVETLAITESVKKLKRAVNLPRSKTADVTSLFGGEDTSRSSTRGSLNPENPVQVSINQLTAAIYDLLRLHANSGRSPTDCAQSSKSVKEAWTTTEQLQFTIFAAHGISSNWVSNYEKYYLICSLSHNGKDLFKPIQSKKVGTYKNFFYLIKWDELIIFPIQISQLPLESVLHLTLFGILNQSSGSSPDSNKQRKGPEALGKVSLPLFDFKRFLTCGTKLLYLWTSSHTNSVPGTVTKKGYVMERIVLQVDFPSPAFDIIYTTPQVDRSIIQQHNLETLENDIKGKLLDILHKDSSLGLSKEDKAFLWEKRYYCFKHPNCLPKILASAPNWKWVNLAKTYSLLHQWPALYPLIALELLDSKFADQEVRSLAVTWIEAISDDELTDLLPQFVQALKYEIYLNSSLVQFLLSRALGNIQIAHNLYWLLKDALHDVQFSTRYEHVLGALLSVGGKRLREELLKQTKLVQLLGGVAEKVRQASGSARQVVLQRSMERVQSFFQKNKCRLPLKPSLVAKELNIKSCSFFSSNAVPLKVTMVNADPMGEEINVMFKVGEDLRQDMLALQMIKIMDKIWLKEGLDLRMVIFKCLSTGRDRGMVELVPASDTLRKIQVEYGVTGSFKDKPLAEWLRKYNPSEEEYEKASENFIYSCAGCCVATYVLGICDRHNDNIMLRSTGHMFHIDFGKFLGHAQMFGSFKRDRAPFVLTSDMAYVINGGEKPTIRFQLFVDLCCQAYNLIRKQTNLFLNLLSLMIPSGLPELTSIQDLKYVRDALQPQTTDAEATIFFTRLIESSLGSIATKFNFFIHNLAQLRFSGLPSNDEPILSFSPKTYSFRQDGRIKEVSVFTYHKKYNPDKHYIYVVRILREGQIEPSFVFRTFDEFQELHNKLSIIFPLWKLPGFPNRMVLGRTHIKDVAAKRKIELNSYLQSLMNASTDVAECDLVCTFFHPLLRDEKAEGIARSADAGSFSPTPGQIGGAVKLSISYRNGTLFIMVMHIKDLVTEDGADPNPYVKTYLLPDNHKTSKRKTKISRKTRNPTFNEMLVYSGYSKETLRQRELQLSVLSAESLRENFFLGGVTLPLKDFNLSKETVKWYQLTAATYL

- IC50 (PI3KC2α Δ1-298; listed as C2a_Inh3, read-out: IC50 for PI3KC2α inhibition): 100 nM
- IC50 (PI3KC2α Δ1-298; read-out: IC50 (PI3KC2α; ADP-Glo™ assay)): 100 nM
Structure (SMILES): O=C(CSc1nc2nccnc2c(=O)n1CCc1ccccc1)Nc1nccs1 [Example Compound 11, 2-((4-Oxo-3-phenethyl-3,4-dihydropteridin-2-yl)thio)-N-(thiazol-2-yl)acetamide]
- specificity in kinase panel [1]: specifically inhibited class II PI3Ks; also recorded: relatively high off-targeting activity towards other class II kinase isoforms
- CCP lifetime (CCP dynamics) ([2]; listed as C2a_Inh3): increased CCP-lifetimes
- CCP lifetime (CCP dynamics) ([2]; listed as C2a_Inh_3): increase of lifetime
- SNX9 AS recruitment to membrane / membrane tubules ([3]; listed as C2a_Inh3): reduced the recruitment of SNX9 to the membrane
- SNX9 AS recruitment to membrane / membrane tubules ([3]; listed as C2a_inh_3): remained largely cytosolic
